Source: patent US8461181B2, “Fused heterocyclic compound and use thereof” (Sumitomo Chemical Company, Ltd., priority 2009, dated 2013)

How the values were obtained:
Assay type in all cases: in vivo
Aphis gossypii [1] = assay: Test Example 1: spray on cucumber seedling inoculated with Aphis gossypii; details: 500 ppm, 10 ml sprayed on cucumber seedling inoculated with about 30 Aphis gossypii; five days after spraying
Procedure: The formulations of the present active compounds (1) to (15), (17) to (25), (27) to (56), (101) to (103), (105) to (108), (117), (118), (121) to (130), (133) to (144), (147), (148), (152) to (156), (202), (204) to (206), (208), (209), (211) to (213), and (216) to (221) obtained by Formulation Example 5 were diluted with water so that the active ingredient concentration was 500 ppm, to prepare spray solutions for test. Separately, a cucumber seedling (second true leaf spreading stage) planted on a plastic cup was inoculated with about 30 Aphis gossypii, and left for 1 day. The above-described diluted solutions were sprayed each in an amount of 10 ml on this seedling. Five days after spraying, the number of insect of living Aphis gossypii […] on the leaves of this cucumber was checked, and the control value was calculated according to the following formula. Control value (%)={1-(Cb×Tai)/(Cai×Tb)}×100 Letters in the formula represent the following meanings. Cb: the number of insect before treatment on non-treated district Cai: the number of insect in observation on non-treated district Tb: the number of insect before treatment on treated district Tai: the number of insect in observation on treated district

Aphis gossypii [2] = assay: Test Example 2: foot drench of cucumber seedling on urethane mat, Aphis gossypii; details: soil, 168 h, 5 ml drench at foot of cucumber seedling on urethane mat, inoculated one day after treatment, checked seven days after
Procedure: The formulations of the present active compounds (4), (5), (8), (9), (11), (12), (14), (15), (17), (20), (35) to (45), (48) to (51), (54) to (56), (206), (209) and (211) to (213) obtained by Formulation Example 5 were diluted with water so that the active ingredient concentration was 500 ppm, to prepare diluted solutions for test. Separately, a cucumber seedling (second true leaf spreading stage) planted on a urethane mat was drenched at its foot with each 5 ml of the diluted solutions, and one day after treatment, the cucumber leaf surface was inoculated with 30 Aphis gossypii (whole stage). Further seven days after, the number of insect of living Aphis gossypii […] on the leaves of this cucumber was checked, and the control value was calculated according to the following formula. Control value (%)={1-(Cb×Tai)/(Cai×Tb)}×100 Letters in the formula represent the following meanings. Cb: the number of insect before treatment on non-treated district Cai: the number of insect in observation on non-treated district Tb: the number of insect before treatment on treated district Tai: the number of insect in observation on treated district

Nilaparvata lugens = assay: Test Example 7: foot drench of rice seedling, thirty first instar larvae of Nilaparvata lugens; details: soil, 144 h, 5 ml drench at foot of rice seedling, kept 7 days, thirty first instar larvae released, further 6 days
Procedure: The formulations of the present active compounds (11), (13) to (15), (17), (23), (26), (35) to (41), (43) to (45), (48) to (51), (54), (55), (209), (211) and (212) obtained by Formulation Example 5 were diluted with water so that the active ingredient concentration was 500 ppm, to prepare diluted solutions for test. Separately, a rice seedling (2 weeks after sowing, second leaf spreading stage) planted on a plastic cup was drenched at its foot with each 5 ml of the diluted solutions, and kept in a greenhouse of 25° C. for 7 days. Thirty first instar larvae of Nilaparvata lugens were released, and further kept in the greenhouse for 6 days. The number of insect of living Nilaparvata lugens […] on rice was checked, and the control value was calculated according to the following formula. Control value (%)={1-(Cb×Tai)/(Cai×Tb)}×100 Letters in the formula represent the following meanings. Cb: the number of insect before treatment on non-treated district Cai: the number of insect in observation on non-treated district Tb: the number of insect before treatment on treated district Tai: the number of insect in observation on treated district

Bemisia tabaci = assay: Test Example 5: spray on tomato seedling with Bemisia tabaci larvae; details: 168 h, 10 ml/cup sprayed on tomato seedling with hatching Bemisia tabaci larvae, 7 days at 25° C.
Procedure: The formulations of the present active compounds (1) to (5), (7) to (15), (17) to (21), (25), (28) to (45), (48) to (56), (101) to (103), (106), (107), (117), (118), (121) to (145), (147) to (151), (153) to (155), (204), (206), (208), (209), (211) to (213) and (216) to (221) obtained by Formulation Example 5 were diluted with water so that the active ingredient concentration was 500 ppm, to prepare spray solutions for test. Separately, on a tomato seedling planted on a plastic cup, Bemisia tabaci adult insects were released and allowed to lay eggs for about 24 hours. The tomato seedling was kept in a greenhouse […], and the above-described spray solutions for test were sprayed at a proportion of 10 ml/cup on the condition of hatching of larvae from the laid eggs, and kept in a greenhouse of 25° C. for 7 days. The number of living larvae on the tomato leaves was checked, and the control value was calculated according to the following formula. Control value (%)={1−(Cb×Tai)/(Cai×Tb)}×100 Letters in the formula represent the following meanings. Cb: the number of insect before treatment on non-treated district Cai: the number of insect in observation on non-treated district Tb: the number of insect before treatment on treated district Tai: the number of insect in observation on treated district

SMILES | control value (Aphis gossypii [1]) | pest or weed control at 500 ppm (Aphis gossypii [2]) [%] | pest or weed control at 500 ppm (Nilaparvata lugens) [%] | pest or weed control at 500 ppm (Bemisia tabaci) [%]
CC(CC(=O)O)n1c(-c2ccncc2)nc2cc(C(F)(F)F)ccc21 (centres unmarked) [comparative compound (B)] | less than 30% | – | – | –
Cc1cc2nc(-c3ccncc3)n(C)c2cc1C [comparative compound (C)] | less than 30% | – | – | –
C=C(CF)Oc1cnccc1-c1nc2cc(C(F)(F)F)ccc2n1C [present active compound 209, 2-[3-(1-fluoromethyl-vinyloxy)-pyridin-4-yl-]-1-methyl-5-trifluoromethyl-1H-benzimidazole] | – | ≥ 90 | ≥ 90 | ≥ 90
